# Paper PMC9265830, “Purification and Identification of a Novel Angiotensin Converting Enzyme Inhibitory Peptide from the Enzymatic Hydrolysate of Lepidotrigla microptera” (Foods, 2022)
# Entries after “also recorded” stand apart in the source; their conditions may differ. Where no end group is shown, it is not given here.
# What was measured:
# pepsin, pancreatin = test: Simulated gastrointestinal digestion; assay type: in vitro ADME; conditions: 0.2 mg/mL; pepsin 0.05% pH 2.0 2 h 37 °C, then pancreatin 0.05% pH 7.5 2 h 37 °C; read-out ACE inhibition
# Protocol: (§1) ACE-inhibitory activity was determined following the method of Cushman. The reaction system comprised a sample (10 μL), HHL (2.5 mM, 30 μL), and ACE solution (0.1 U/mL, 20 μL) in sodium borate buffer (pH 8.3, 0.3 M NaCl). The mixture of HHL and the sample was pre-incubated for 15 min at 37 °C before adding the ACE solution. The reaction was carried out for 40 min at 37 °C in a water bath and terminated by adding HCl (1 mol/L, 60 μL). Then 20 μL of the reaction mixture was injected into an HPLC system (Shimadzu, Japan) equipped with a C-18 column (150 × 4.6 mm, 5 μm). In order to detect the concentration of HA (hippuric acid), isocratic elution was performed for 25 min in 80% mobile phase A (0.05% Trifluoroacetic acid in H2O) and 20% mobile phase B (Acetonitrile) at a 0.8 mL/min flow rate, and the detection wavelength was 280 nm. The ACE-inhibitory activity was calculated according to the formula:ACE-inhibitory activity (%) = (A1 − A2)/A1(1) where A1 and A2 equal the peak areas of blank control and the sample, respectively.
# Simulated gastrointestinal digestion of ACE-inhibitory peptides was conducted following the method of Lai et al. with slight modifications. […]
# ACE [1] = target: T1, ACE (Homo sapiens, UniProt P12821); test: Inhibitory kinetics study (Lineweaver–Burk plots); assay type: biochemical; conditions: for Vmax of the enzyme reaction: HHL 1-5 mM, Vmax without peptide 20 mM/min
# Protocol: Different concentrations of ACE-inhibitory peptide (0, 60, and 120 μM) were mixed with various concentrations of HHL solution (1, 2, 3, 4 and 5 mM) and pre-incubated for 5 min at 37 °C. Then the reaction was initiated by adding 80 µL of ACE and terminated by adding 20 µL of 1 mol/L HCl. The Lineweaver–Burk plot of the reciprocal of the HHL concentration (1/[s]) and the HA production rate (1/[v]) were used to analyze the inhibitory kinetics of peptide.
# [2] = Thermal stability of ACE inhibitory activity; assay type: physicochemical
# Protocol: as §1
# The sample (0.2 mg/mL) was treated at various temperatures (20, 40, 60, 80, and 100 °C) for 1 h. After cooling the solution to indoor temperature (25 °C), the ACE inhibition activity was detected.
# [3] = pH stability of ACE inhibitory activity; assay type: physicochemical; conditions: 0.2 mg/mL, 37 °C, 2 h, pH 3 to 11 (method: 2, 4, 6, 8, 10), readjusted to pH 7.0; read-out ACE inhibition
# Protocol: as §1
# The ACE-inhibitory peptide solution (0.2 mg/mL) was incubated at different pH levels (2, 4, 6, 8, and 10) at 37 °C for 2 h, and the pH value was adjusted by adding HCl (1 mol/L) and NaOH (1 mol/L). Before the ACE inhibition rate was determined, the pH value was adjusted to 7.0.
# ACE [4] = target: T1, ACE; test: ACE-inhibitory activity (HHL substrate, hippuric acid by HPLC); assay type: biochemical; conditions: ultrafiltration, Sephadex G-15 and prep-HPLC fractions; chemically synthesized peptides; read-out: IC50 (ACE inhibition) of fractions and synthesized peptides (converted)
# Protocol: as §1
# T1 sequence (P12821 30-1306, species assumed): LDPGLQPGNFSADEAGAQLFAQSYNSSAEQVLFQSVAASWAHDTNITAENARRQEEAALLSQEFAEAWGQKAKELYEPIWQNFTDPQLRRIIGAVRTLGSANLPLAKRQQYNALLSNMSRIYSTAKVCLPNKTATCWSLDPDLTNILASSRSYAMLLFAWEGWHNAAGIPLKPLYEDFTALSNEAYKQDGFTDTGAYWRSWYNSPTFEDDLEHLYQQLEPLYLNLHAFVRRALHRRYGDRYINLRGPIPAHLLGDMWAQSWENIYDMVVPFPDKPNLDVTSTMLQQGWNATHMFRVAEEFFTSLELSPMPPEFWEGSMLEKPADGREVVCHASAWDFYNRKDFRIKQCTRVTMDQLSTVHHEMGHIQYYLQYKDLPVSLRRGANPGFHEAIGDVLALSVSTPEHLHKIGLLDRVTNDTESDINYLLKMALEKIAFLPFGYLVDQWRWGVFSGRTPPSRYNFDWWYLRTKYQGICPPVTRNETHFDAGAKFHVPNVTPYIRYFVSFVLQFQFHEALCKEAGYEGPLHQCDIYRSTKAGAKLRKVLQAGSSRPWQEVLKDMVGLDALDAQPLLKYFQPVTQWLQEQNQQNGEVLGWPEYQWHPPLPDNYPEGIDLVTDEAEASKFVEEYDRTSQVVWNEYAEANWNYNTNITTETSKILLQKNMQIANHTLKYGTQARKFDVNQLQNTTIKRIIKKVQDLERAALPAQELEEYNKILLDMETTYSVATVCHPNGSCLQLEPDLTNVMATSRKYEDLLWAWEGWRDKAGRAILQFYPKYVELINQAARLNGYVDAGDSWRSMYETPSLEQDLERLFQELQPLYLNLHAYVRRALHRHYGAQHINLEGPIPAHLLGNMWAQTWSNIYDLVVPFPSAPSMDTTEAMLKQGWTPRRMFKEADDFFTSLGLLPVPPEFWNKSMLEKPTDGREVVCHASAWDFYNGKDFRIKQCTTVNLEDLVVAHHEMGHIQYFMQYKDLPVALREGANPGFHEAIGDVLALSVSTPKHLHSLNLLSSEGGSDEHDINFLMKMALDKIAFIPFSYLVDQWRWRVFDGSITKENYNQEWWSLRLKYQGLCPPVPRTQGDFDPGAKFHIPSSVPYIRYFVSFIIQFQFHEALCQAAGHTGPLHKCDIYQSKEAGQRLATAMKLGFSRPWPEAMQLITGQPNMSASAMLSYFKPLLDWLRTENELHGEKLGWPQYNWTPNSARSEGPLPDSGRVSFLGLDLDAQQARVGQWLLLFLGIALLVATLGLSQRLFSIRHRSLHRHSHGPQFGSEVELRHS
Vmax of the enzyme reaction (ACE [1]; 60 μM peptide) [mM/min],Vmax of the enzyme reaction (ACE [1]; 120 μM peptide) [mM/min],Inhibitory kinetic mechanism (ACE [1]; Lineweaver–Burk plot),"ACE-inhibitory activity after heat treatment ([2]; 0.2 mg/mL, 1 h, temperature above 60 °C (up to 100 °C), read-out ACE inhibition)","ACE-inhibitory rate after heat treatment ([2]; 0.2 mg/mL, 1 h, temperature range 20 to 60 °C, read-out ACE inhibition)",Stability of ACE-inhibitory activity (abstract summary) ([2]; temperatures (<100 °C) and pH values (3.0–11.0)),IC50 (ACE [4]) [µM],Compound,"Relative ACE inhibition activity before and after digestion (pepsin, pancreatin)",ACE-inhibitory activity after pH treatment [3]
5,2.78,noncompetitive,slightly decreased,remained relatively stable,stable,,"CC(C)C[C@H](NC(=O)CNC(=O)[C@H](C)NC(=O)[C@@H](NC(=O)[C@H](CC(C)C)NC(=O)[C@@H](N)CC(=O)O)[C@@H](C)O)C(=O)N[C@@H](CC(C)C)C(=O)N[C@@H](CCC(=O)O)C(=O)O [DLTAGLLE, Phe-Leu-Thr-Ala-Gly-Leu-Leu-Asp]",retained after gastrointestinal digestion; also recorded: essentially unchanged,maintained high ACE-inhibitory activity at all pH values
,,,,,,214,"YLTLFLLT [YLTLFLLT, Tyr-Leu-Thr-Leu-Phe-Leu-Leu-Thr]",,
